Assay results reported in PubChem BioAssay AID489019 (Sanford-Burnham Center for Chemical Genomics, 2010).
Calls of active or inactive are those of the source. How the calls were made is not given here.

Tested on: HEK-293T NF-kB-Luc cytotoxicity, resazurin fluorescence, 15 h
Assay: HEK-293T viability loss, cell-based, uHTS hits, cytotoxicity control for B/T-cell NF-kB inhibitor project, dose response (AID 489019)

Compound: CC(=O)OC[C@]12CCC(C)=C[C@H]1O[C@@H]1[C@H](O)[C@@H](OC(C)=O)[C@@]2(C)[C@]12CO2
- IC50: > 80 µM (inactive)
